Results reported in patent publication US4167580A, “Compositions and method of use to treat arthritic disease with m-fluorobenzimidoylacetonitrile” (American Cyanamid Company, priority 1978, dated 1979).

What was measured:
[1] = system: Carrageenin Induced Edema of the Rat Paw; assay: Carrageenin induced edema of the rat paw (acute anti-inflammatory activity); type: in vivo, Royal Hart, Wistar strain rats; details: 25 mg./kg. by gavage, 5 hours after drug (4 hours after carrageenin)
Description: In determining the acute anti-inflammatory activity of benzimidoylacetonitrile, Royal Hart, Wistar strain rats ranging in weight from 80 to 90 grams were used. The rats were fasted overnight prior to dosing but had free access to water. The compound was administered in aqueous suspension, by gavage, in a volume of 1.7 ml. per 50 grams of rat [corresponds by hydration volume used by Winter et al., Proc. Soc. […] The phlogistic agent used was carrageenin prepared as a sterile 1% suspension in 0.9% aqueous sodium chloride for routine testing. A volume of 0.05 ml. was injected through a 26 gauge needle into the planter tissue of the right hind paw. Measurements were made 5 hours after drug administration (4 hours after carrageenin challenge). Volumes of both the normal and carrageenin inflamed feet were determined. The difference between the two measurements is considered to be the increased edema due to the carrageenin administration.

[2] = system: Body Temperature of Pyretic Rats; assay: Body temperature in yeast induced pyrexia; type: in vivo, Royal Hart, Wistar strain rats; details: 250 mg./kg. by gavage 17 hours after yeast; measured 19 hours post challenge
Description: The effect of benzimidoylacetonitrile on body temperature in yeast induced pyrexia was determined by the following procedure. Groups of three Royal Hart, Wistar strain rats weighing 80±5 grams were injected subcutaneously in the nape of the neck with 0.6 ml. of a 40% suspension of dried brewers yeast in distilled water. […] At 19 hours post challenge the rectal temperature of each rat was measured with an electric thermometer. Each dose response experiment was replicated one or more times.

[3] = system: Adjuvant Arthritis in Rats; assay: Adjuvant induced arthritis in rats (chronic inflammation with joint destruction); type: in vivo, Royal Hart, Wistar strain rats; details: once daily days 0-13
Text: Adjuvant induced experimental polyarthritis is a specific systemic disease of the rat which shares interesting similarities with rheumatoid arthritis. Specifically, the histology of the two diseases bears a remarkable resemblance as shown by C. M. Pearson et al., Am. J. Pathol. 42, 73 (1963). E. M. Glenn, Am. J. Vet. Res. 27 (116), 339 (1966) has classified adjuvant induced polyarthritis as a crippling and permanent deformity resulting from diffuse connective tissue involvement around certain susceptible joints in the rat. Zahiri et al., Can. Med. Ass. J. 101, 269 (1969) have shown that the fusiform swelling of the distal joints is associated with edema, congestion and synovitis including pannus formation, all of which precede the ultimate destruction of bone and cartilage. Furthermore, Zahiri et al. indicate that the cartilage destruction in the joint is due to an invasive pannus which originates in the marginal synovium and extends across the articular surface to erode it. […] See S. Wong et al., J. Pharm. & Exptl. Ther. 185, 127 (1973) and G. R. Bobalick et al., Agents & Actions 4, 364 (1974). In a similar manner, inhibition of the progress of arthritis in paws of rats treated with the compounds of this invention also lessens associated joint deterioration.
Groups of three Royal Hart, Wistar strain rats weighing 200±10 grams each were injected intradermally in the right hind paw with Freund's adjuvant (dried human tubercle bacilli in a mineral oil vehicle) at a dose of 2 mg./kg. of body weight. Test compounds were administered orally in a 1.5% staruh vehicle at various doses once daily on days 0 through 13 post challenge. Control rats were treated in a similar manner, but given only starch vehicle. On the 14th and 21st day post challenge the diameter of the injected paw (primary lesion) was measured by micrometer caliper. The volume of inflamed paws were estimated from these measurements and the results are expressed as percent inhibition of swelling as compared to controls. At the same time, the other inflamed sites, such as ears, paws and tail (secondary lesions) were observed and each rat was graded as to degree of inflammation and swelling present. The grading is based on a scale of 0 to 24, where 0 represents a complete absence of induced arthritic nodules and 24 represents the maximum degree of inflammation. The mean grade for each treated group is calculated and the effects of each compound are expressed as percent inhibition of the control grade. Table III records the results of these tests conducted with benzimidoylacetonitrile, m-fluorobenzimidoylacetonitrile and p-fluorobenzimidoylacetonitrile and known anti-inflammatory agents. The active compounds of the present invention suppress the progression of the arthritis and associated joint deterioration. Of particular interest is the low mortality observed with benzimidoylacetonitrile treated rats relative to either controls or rats treated with standard compounds.

Erythema in Guinea Pigs = assay: Ultraviolet induced erythema in guinea pigs, topical application; type: in vivo, Albino guinea pigs
Description: Albino guinea pigs were depilitated on their flanks, the evening before testing, with a standard mixture of barium sulfide and gum acacia. On the morning of the test at 0 hour they were restrained in a plastic container which allows exposure of 3 circular spots. They were then exposed to ultraviolet irradiation from a "Hanovia" Kromayer lamp, model 10, for 60 seconds. Immediately after exposure to ultraviolet light, the guinea pigs were treated by dissolving the test compound in ethyl alcohol at various concentrations and swabbing the UV exposed areas with the aid of a cottom tipped applicator stick. At one and four hours, the degree of erythema for each of the three sites was assessed according to the following scoring system: 0=no erythema, 0.5=incomplete circle or faint erythema and 1.0=complete circle of distinct erythema. Thus, the maximum score for each animal was 3.0.

arthritic paw swelling = details: Wong et al. 1973; Bobalick et al. 1974; cited from earlier work

For COc1ccc2c(c1)c(CC(=O)O)c(C)n2C(=O)c1ccc(Cl)cc1 [Indomethacin], the “C/T Edema Ratio (edema of control animals/edema of treated animals)” value [1] was 2.9, the “Decrease In Body Temp.” value [2] was 2.5 °C and the “% Inhibition of Control Grade (secondary lesion), Day 14” value (from here on “% Inhibition of Control Grade … Day 14”) ([3]; 0.25 mg./kg. oral) was 22%. The “% Inhibition of Control Grade (secondary lesion), Day 21” value (“% Inhibition of Control Grade … Day 21” below) ([3]; 0.25 mg./kg. oral) was 4%, the “% Inhibition of Swelling (primary lesion), Day 14” value (shortened to “% Inhibition of Swelling … Day 14”) ([3]; 0.25 mg./kg. oral) was 30% and the “% Inhibition of Swelling (primary lesion), Day 21” value (from here on “% Inhibition of Swelling … Day 21”) ([3]; 0.25 mg./kg. oral) was 4%. For the same molecule, the “Dead/Treated At 21 Days” value ([3]; 0.25 mg./kg. oral) was 0/9, the “Mean Weight Gain, Day 14” value ([3]; 0.25 mg./kg. oral) was 51 grams and the “Mean Weight Gain, Day 21” value ([3]; 0.25 mg./kg. oral) was 57 grams. For the same molecule, the “% Inhibition of Control Grade … Day 14” value ([3]; 0.5 mg./kg. oral) was 25%, the “% Inhibition of Control Grade … Day 21” value ([3]; 0.5 mg./kg. oral) was 17% and the “% Inhibition of Swelling … Day 14” value ([3]; 0.5 mg./kg. oral) was 40%. The “% Inhibition of Swelling … Day 21” value ([3]; 0.5 mg./kg. oral) was 20%, the “Dead/Treated At 21 Days” value ([3]; 0.5 mg./kg. oral) was 5/54 and the “Mean Weight Gain, Day 14” value ([3]; 0.5 mg./kg. oral) was 53 grams. The “Mean Weight Gain, Day 21” value ([3]; 0.5 mg./kg. oral) was 51 grams, the “% Inhibition of Control Grade … Day 14” value ([3]; 1 mg./kg. oral) was 34% and the “% Inhibition of Control Grade … Day 21” value ([3]; 1 mg./kg. oral) was 20%. For the same molecule, the “% Inhibition of Swelling … Day 14” value ([3]; 1 mg./kg. oral) was 46%, the “% Inhibition of Swelling … Day 21” value ([3]; 1 mg./kg. oral) was 19% and the “Dead/Treated At 21 Days” value ([3]; 1 mg./kg. oral) was 9/54. For the same molecule, the “Mean Weight Gain, Day 14” value ([3]; 1 mg./kg. oral) was 63 grams, the “Mean Weight Gain, Day 21” value ([3]; 1 mg./kg. oral) was 65 grams and the “% Inhibition of Control Grade … Day 14” value ([3]; 2 mg./kg. oral) was 38%. The “% Inhibition of Control Grade … Day 21” value ([3]; 2 mg./kg. oral) was 25%, the “% Inhibition of Swelling … Day 14” value ([3]; 2 mg./kg. oral) was 51% and the “% Inhibition of Swelling … Day 21” value ([3]; 2 mg./kg. oral) was 24%. For the same molecule, the “Dead/Treated At 21 Days” value ([3]; 2 mg./kg. oral) was 8/57, the “Mean Weight Gain, Day 14” value ([3]; 2 mg./kg. oral) was 68 grams and the “Mean Weight Gain, Day 21” value ([3]; 2 mg./kg. oral) was 68 grams. The “Erythema Score (Avg.) 1 Hr.” value (Erythema in Guinea Pigs; 0.25% in ethyl alcohol, maximum score 3.0, control 2.5) was 1.8, the “Erythema Score (Avg.) 4 Hr.” value (Erythema in Guinea Pigs; 0.25% in ethyl alcohol, maximum score 3.0, control 3.0) was 2.5 and the “Erythema Score (Avg.) 1 Hr.” value (Erythema in Guinea Pigs; 0.5% in ethyl alcohol, maximum score 3.0, control 2.5) was 1.5. For the same molecule, the “Erythema Score (Avg.) 4 Hr.” value (Erythema in Guinea Pigs; 0.5% in ethyl alcohol, maximum score 3.0, control 3.0) was 2.4, the “Erythema Score (Avg.) 1 Hr.” value (Erythema in Guinea Pigs; 1% in ethyl alcohol, maximum score 3.0, ethyl alcohol control 2.5) was 0.7 and the “Erythema Score (Avg.) 4 Hr.” value (Erythema in Guinea Pigs; 1% in ethyl alcohol, maximum score 3.0, ethyl alcohol control 3.0) was 2.5. For the same molecule, the “arthritic paw swelling (in words)” value (arthritic paw swelling) was “inhibit arthritic paw swelling” and the “joint and bone deterioration (in words)” value (arthritic paw swelling) was “prevent joint and bone deterioration”.
